The numbers were not newly measured in patent US5252560A, “Cyclic imide derivatives, compositions and use” (Glaxo Inc., priority 1991, dated 1993), which cites them from elsewhere.

The data set has as its system arthritis in a collagen-induced model. The following applies: large doses; collagen-induced model in the mouse.

For “TIMP: the natural inhibitor of collagenase”, the severity of arthritis result was “decreases the severity of arthritis”.
